According to patent publication US9522260B2, “Apparatus for the controlled release of topical nitric oxide” (University of Windsor, priority 2011, dated 2016):

Assay: Thermal and storage stability of AuNP nanocomposites and SNOG
Assay type: physicochemical
Method: All of the AuNP-nanocomposites i) to iv) as well as SNOG solutions 1 mM, dissolved in distilled deionized water and containing 100 μM diethylenetriaminepentaacetic acid (DPTA) a metal chelator were stored at 5° C., 25° C. and 55° C. for 1 month. These components were then added to the testing apparatus 90 (FIG. 3) and their NO-release characteristics were compared to fresh samples.
In one simplest and most cost effective manner to prepare an AuNP-nanocomposite, cotton gauze with AuNP (˜10 nm) is prepared by a conventional citrate reduction method.
SNOG solutions (1 mM) containing DPTA (0.1 mm) decomposed ˜5% upon incubation at 40° C. for 7 days. Stability of the SNOG may be increased further by either suspending it in polyethylene glycol or dissolving it in glycerol.

## N[C@@H](CCC(=O)N[C@@H](CSN=O)C(=O)NCC(=O)O)C(=O)O [SNOG, S-nitrosoglutathione]
SNOG solutions (1 mM) containing DPTA (0.1 mm), incubation at 40° C. for 7 days
  decomposition of SNOG solution: ~5%
solid, storage at 40° C. for one week, preliminary experiments
  thermal stability of solid SNOG: thermally stable
